Laboratory results taken from PMC9458250, “6-Formyl Umbelliferone, a Furanocoumarin from Angelica decursiva L., Inhibits Key Diabetes-Related Enzymes and Advanced Glycation End-Product Formation” (Molecules, 2022).
One block for each compound: values may come before it.

What was measured:
[1] = target: T1, PTP1B (human recombinant) (Homo sapiens, UniProt P18031); assay: PTP1B inhibition assay using pNPP; assay type: biochemical
T1 construct: purchased Biomol International LP (Plymouth Meeting, PA, USA)
T1 sequence (P18031 1-435): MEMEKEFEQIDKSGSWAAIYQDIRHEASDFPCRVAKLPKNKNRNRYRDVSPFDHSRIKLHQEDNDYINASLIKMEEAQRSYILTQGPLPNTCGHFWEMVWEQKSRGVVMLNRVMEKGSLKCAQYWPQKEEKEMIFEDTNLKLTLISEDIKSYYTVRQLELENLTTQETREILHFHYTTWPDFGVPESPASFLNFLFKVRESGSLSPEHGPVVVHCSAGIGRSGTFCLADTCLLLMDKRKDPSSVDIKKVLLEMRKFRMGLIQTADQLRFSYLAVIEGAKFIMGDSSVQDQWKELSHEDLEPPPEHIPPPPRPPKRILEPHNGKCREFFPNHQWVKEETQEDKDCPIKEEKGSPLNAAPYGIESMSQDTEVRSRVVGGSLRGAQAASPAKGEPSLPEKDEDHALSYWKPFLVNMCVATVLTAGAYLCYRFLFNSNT
Experimental: The PTP1B inhibitory activity was evaluated using pNPP according to the modified procedure reported by Ali et al..
(§1) To determine the inhibition mechanism, enzymatic inhibition at various concentrations of 6-FU was evaluated by monitoring the effects of different concentrations of substrates via Dixon plots. Dixon plots for PTP1B inhibition by 6-FU were obtained in the presence of 0.5, 1, and 2 mM pNPP. The test concentrations of 6-FU in the PTP1B kinetic analysis were 0, 1.25, 2.5, 5.0, and 10 µM. Dixon plots for α-glucosidase inhibition by 6-FU were performed in the presence of 0.625, 1.25, and 2.5 mM pNPG. The test concentrations of 6-FU used in the α-glucosidase kinetic analysis were 0, 31.25, 62.5, 125, and 250 µM. Both enzymatic procedures followed the PTP1B and α-glucosidase assay methods. Dixon plots for HRAR inhibition by 6-FU were performed in the presence of 5, 10, and 20 mM of DL-glyceraldehyde as the substrate. The test concentrations of 6-FU used in the HRAR kinetic analysis were 0, 0.08, 0.4, 2, and 10 µM. The Dixon plot is a graphical method [1/enzyme velocity (1/V) against inhibitor concentration (I)] for determining the type of enzyme inhibition and was used to determine the dissociation or inhibition constant (Ki) for the enzyme–inhibitor complex. Thus, the type of enzyme inhibition was determined by interpreting the Lineweaver–Burk plots, and the inhibition constants (Ki) were determined by interpreting the Dixon plots.

Yeast α-glucosidase = Yeast α-glucosidase (Saccharomyces cerevisiae, UniProt P53341); assay: α-glucosidase inhibitory assay using pNPG; assay type: biochemical; conditions: Dixon and Lineweaver-Burk plots
Yeast α-glucosidase, sequence (P53341 whole entry): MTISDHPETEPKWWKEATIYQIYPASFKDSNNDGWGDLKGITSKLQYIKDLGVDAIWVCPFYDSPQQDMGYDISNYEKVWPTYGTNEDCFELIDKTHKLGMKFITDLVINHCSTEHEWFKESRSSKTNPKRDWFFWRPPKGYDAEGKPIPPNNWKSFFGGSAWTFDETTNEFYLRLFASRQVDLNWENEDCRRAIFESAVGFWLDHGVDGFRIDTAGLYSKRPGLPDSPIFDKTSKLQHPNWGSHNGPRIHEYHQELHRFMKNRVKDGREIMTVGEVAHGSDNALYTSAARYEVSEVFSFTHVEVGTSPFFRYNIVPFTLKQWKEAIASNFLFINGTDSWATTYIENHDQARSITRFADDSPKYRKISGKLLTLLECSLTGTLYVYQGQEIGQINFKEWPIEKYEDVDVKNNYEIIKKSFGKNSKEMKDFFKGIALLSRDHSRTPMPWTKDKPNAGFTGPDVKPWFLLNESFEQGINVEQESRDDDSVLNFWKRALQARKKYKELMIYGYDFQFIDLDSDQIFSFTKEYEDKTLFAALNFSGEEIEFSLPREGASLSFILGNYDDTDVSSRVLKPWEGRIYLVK
Experimental: as §1

[2] = target: T2, human recombinant aldose reductase (HRAR) (Homo sapiens, UniProt P15121); assay: HRAR inhibition assay (NADPH absorption decrease, DL-glyceraldehyde substrate); assay type: biochemical
T2 construct: purchased Wako Chemicals (Osaka, Japan)
Experimental: HRAR inhibition was examined as described by Ali et al.. Briefly, AR activity was determined by measuring the decrease in NADPH absorption at 340 nm over a period of 1 min on an Ultrospec®2100pro UV/Visible spectrophotometer (Cytiva, Buckinghamshire, UK). SWIFT II Applications software (Amersham Biosciences, NJ, USA) was used for all data analyses. […] The inhibition percentage (%) was calculated as described in the RLAR assay, except that the DA sample per min value represented the reduction in absorbance for 1 min with the test samples and substrate. The ability of each sample to inhibit HRAR was expressed as an IC50 value (µM), which was calculated from the log-dose inhibition curve.
as §1

[3] = system: advanced glycation end-product (AGE) formation; assay: Inhibition of fluorescent AGE formation in HSA-glucose-fructose system; parameters: species or system human; conditions: for percentage of inhibition of AGE formation: week 4 of incubation
Experimental: The formation of glycated HSA-fructose-glucose was examined according to a previously published method. To prepare the AGE reaction solution, 20 mg/mL HSA in 50 mM sodium phosphate buffer (pH 7.4) was added to 0.2M fructose, 0.2 M glucose, and 0.02% sodium azide to prevent bacterial growth. The reaction mixture (3.8 mL) was then mixed with 200 μL of various concentrations of 6-FU and aminoguanidine hydrochloride dissolved in 10% DMSO. The control was prepared using HSA and sugars, and a blank was prepared using only HSA in the same buffer. The reaction mixtures were incubated at 37 °C for 4 weeks. Aliquots of the reaction mixtures were then assayed to determine the presence of AGEs.
The ability of the isolates to inhibit AGE formation was evaluated according to a previously published method with slight modifications. To prepare the AGE reaction solution, 20 mg/mL HSA in 50mM sodium phosphate buffer (pH 7.4) was added to 0.2M fructose and 0.2 M glucose, along with 0.02% sodium azide to prevent bacterial growth. The reaction mixture (950 μL) was then combined with various concentrations of 6-FU (50 μL, test concentration ranging from 0.8 to 100 μM) dissolved in 10% DMSO. After incubating the mixture at 37 °C, AGE formation in the aliquots was determined at weekly intervals using a spectrofluorometric detector (FLx800 microplate fluorescence reader, Bio-Tek Instrument, Inc., Winooski, VT, USA) with excitation and emission wavelengths of 350 nm and 450 nm, respectively. The nucleophilic hydrazine compound aminoguanidine was used as a reference in the AGE assay.

C2C12 cells = assay: C2C12 cell viability (MTT assay); assay type: cell-based; conditions: 24 h, up to 40 μM (tested up to 80 μM)
Experimental: The C2C12 cell line (skeletal muscle cells) was purchased from the American Type Culture Collection (Manassas, VA, USA). The C2C12 cells were cultured at 37 °C in DMEM supplemented with 10% FBS and P/S (Hyclone, Mordialloc, VIC, Australia) in a humidified atmosphere with 5% CO2. The tetrazolium dye colorimetric test (MTT) was used to determine cell viability. First, the C2C12 cells were cultured in 96-well plates (2 × 10^5 cells/well) for 24 h. After they reached 90% confluence, they were treated with various concentrations of 6-FU. After 24 h of incubation, the MTT reagent was added to each well, and the plate was incubated for 2 h at 37 °C. The media were removed, and the wells were washed twice with PBS (pH 7.4). To measure the proportion of surviving cells, the medium was replaced with 100 μL DMSO (100%). The resulting absorbance values were measured at 570 nm with a microplate reader (Molecular Devices, Sunnyvale, CA, USA).

[4] = system: insulin-resistant C2C12 skeletal muscle cells; assay: 2-NBDG glucose uptake assay; assay type: cell-based
Experimental: The C2C12 cells were cultured in 96-well plates (2 × 10^5 cells/well) with DMEM containing 10% FBS and 1% P/S at 37 °C and exposed to a 5% CO2 atmosphere. When the cells reached confluence, they were subjected to differentiation in DMEM supplemented with 2% horse serum for 5 days. Then the cells were starved in low-glucose serum-free DMEM for 24 h. Subsequently, the 2-NBDG assay was performed to evaluate glucose uptake. The cells were treated with various concentrations of 6-FU and insulin (100 nM) for 12 h, followed by 20 μM 2-NBDG for 24 h. To stop the response, the cells were washed three times with ice-cold PBS, and then the 2-NBDG fluorescence intensity was measured on a microplate reader (FL × 800, Bio-Tek Instruments Inc., Winooski, VT, USA) at 490 nm (excitation) and 535 nm (emission). Five replicate wells were established, and each experiment was replicated three times. Rosiglitazone was used as the positive control.

[5] = system: PTP1B expression in insulin-resistant C2C12 cells; assay: PTP1B expression by Western blot; assay type: cell-based; conditions: 40 μM, 24 h
Experimental: Insulin-resistant C2C12 cells (2 × 10^5 cells/well) in 6-well plates were treated with different concentrations of 6-FU for 24 h. After stimulation with 100 nM insulin for 30 min at 37 °C, the cells were washed three times with ice-cold PBS, collected, and lysed with sample buffer (50 mM HEPES, pH 7.5, 150 mM NaCl, 2.5 mM EDTA, 0.5% NP40, 1 mM PMSF, 1 mM DTT, 0.2% aprotinin, 0.5% leupeptin, 20 mM NaF, and 1 mM Na3VO4) on ice. After incubation for 30 min, the insoluble materials were removed by centrifugation at 25,000× g for 20 min. The protein concentrations were determined using a modified Bradford protein assay kit. Total protein (50 μg) was subjected to dodecyl sulfate–polyacrylamide gel electrophoresis and transferred to a polyvinylidene difluoride membrane. The membranes were blocked in blocking buffer (5% skim milk in Tris-buffered saline containing 0.1% Tween 20 (TBST)) and incubated with primary antibodies overnight at 4 °C, followed by incubation with appropriate secondary antibodies for 4 h at room temperature. The membranes were washed three times with TBST for 40 min. The bands were detected using Super Signal West Pico chemiluminescence substrate (Pierce, Rockford, IL, USA) according to the manufacturer’s instructions. The immunoreactive protein bands were detected using an Odyssey scanning system (LI-COR, Lincoln, NE, USA). […]

[6] = Dixon and Lineweaver-Burk plots

SMILES: O=Cc1cc2ccc(=O)oc2cc1O [6-FU, 6-formyl umbelliferone]
IC50 [1]: 1130 ± 120 nM
Ki [1]: 1720 nM
Inhibition type PTP1B [1, 6]: Competitive
Inhibition type α-Glucosidase (Yeast α-glucosidase): Mixed
IC50 [2]: 5110 ± 210 nM
Ki [2]: 4870 nM
Inhibition type HRAR [2, 6]: Mixed
IC50 ([3]; AGE formation, mean ± SEM of triplicates): 2150 ± 130 nM
percentage of inhibition of AGE formation ([3]; 0.8 μM): 24.04%
percentage of inhibition of AGE formation ([3]; 4.0 μM): 55.73%
percentage of inhibition of AGE formation ([3]; 20 μM): 64.18%
percentage of inhibition of AGE formation ([3]; 100 μM): 82.60%
cytotoxicity (cell viability, MTT) (C2C12 cells): not cytotoxic
insulin-stimulated 2-NBDG uptake ([4]; 10, 20, and 40 μM, compared with the control): significantly enhanced
PTP1B expression level [5]: decreased

SMILES: N=C(N)NN [Aminoguanidine, aminoguanidine, reference compound]
percentage of inhibition of AGE formation ([3]; 100 μM): 57.23%

IC50 [2]: 630 ± 10 nM
SMILES: O=C(O)Cn1c(=O)n(Cc2ccc(Br)cc2F)c(=O)c2ccc(Cl)cc21 [Zenarestat, zenarestat, reference compound]

SMILES: CN(CCOc1ccc(CC2SC(=O)NC2=O)cc1)c1ccccn1 (stereo not drawn) [rosiglitazone, reference compound]
insulin-stimulated glucose uptake ([4]; 5 μM): significantly increased
